Patent US9567371B2, “Short beta-defensin-derived peptides” (Yeda Research and Development Co. Ltd., priority 2009, dated 2017)
Peptide text beside a SMILES is read from it.

How the values were obtained:
[1] = test system: SDF-1; assay: SDF-1 plasma levels in injected mice (ELISA); assay type: in vivo, mouse; conditions: 5 mg/kg s.c., compared with mice injected with PBS
Method: (§1) SDF-1 levels in tested samples were determined by ELISA as described (Kalinkovich, A., et al., 2006) where the K15C monoclonal antibodies (mAb, INRA, Paris, France) recognizing the first three amino acids of SDF-1 were utilized as a capture Ab (10 μg/mL) in order to measure levels of intact, non-cleaved SDF-1. Levels of basic FGF (bFGF) and HGF in tested samples were determined by using corresponding capture mAbs and polyclonal biotynilated Abs (R&D Systems) as recommended by the manufacturer. In order to examine SDF-1, bFGF and HGF levels in cell supernatants, MS-5, MBA-15 and MG-63 cells were seeded in 24-well Costar wells and cultivated in RPMI 1640 or αMEM Eagle medium, respectively, with 10% FCS. When the cells reached confluence, the medium was changed to serum free medium and cells were cultivated for additional 6 hrs in the presence of various concentrations of the peptides. Medium samples were collected and centrifuged 10 min at 6000×g at 4° C. to remove cell debris. Supernatants were collected and kept at −70° C. until tested.

[2] = test system: MBA-15 cells; assay: SDF-1, bFGF and HGF secretion by stromal cells (ELISA of supernatants); assay type: cell-based, mouse; conditions: 10 μM
Method: (§2) FIGS. 7A-7F. Effect of TL-1, AK-1 and cyclic TL-1 on SDF-1, bFGF and HGF secretion by different stromal cell lines. MS-5, MBA-15 and MG-63 cells were co-cultured with 10 μM TL-1, AK-1 or cyclic TL-1 in the serum free medium for 6 hrs, or without added peptide (UT). Levels of SDF-1 (A-C), bFGF (D) and HGF (E, F) were detected in the collected supernatants by ELISA. Data shown are the mean±SD of 2 separate experiments. *P<0.05 compared to control.
as §1
(§3) Because BM stromal cells, such as endosteal bone lining osteoblasts and endothelial cells are the main source of human and murine SDF-1, the capability of the peptides to affect SDF-1 secretion by mouse stromal MS-5 and MBA-15 cells, and human osteoblast MG-63 cells was examined.
(§4) In order to examine the capability of the peptides to induce secretion of other proteins, the levels of Hepatocyte growth factor (HGF) and Basic fibroblast growth factor (bFGF) were detected in the same supernatants.

[3] = test system: MS-5 cells; assay: as above; assay type: cell-based, mouse; conditions: 10 μM, compared with untreated cells
Method: as §2, §1, §3, §4

[4] = test system: MG-63 cells; assay: as above; assay type: cell-based, human; conditions: 10 μM, compared with untreated cells
Method: as §2
as §1, with “When the cells reached confluence, the medium was changed to serum free medium and cells were cultivated for additional 6 hrs in the presence of various concentrations of the peptides. Medium samples were collected and centrifuged 10 min at 6000×g at 4° C. to remove cell debris. Supernatants were collected and kept at −70° C. until tested.” left out
as §4

[5] = test system: U937 cells; assay: Transwell migration towards SDF-1; assay type: cell-based, human
Method: Various cells (1×10^6/mL), untreated or pretreated with peptides for 3 hrs at 96-well flat bottom plates at 37° C. were washed, 2×10^5 cells/100 μL were added to the upper chambers of Costar 24-well transwell plates with 5 μm pore filters (Corning Inc., Corning, N.Y.) and allowed to migrate for 2-4 hrs at 37° C. (95% humidity, 5% CO2) spontaneously or towards 50 ng/mL SDF-1 (rhSDF-1, Peprotech, Rocky Hill, N.J.) in medium supplemented with 10% FCS. In the chemotaxis assay, untreated cells were added to the upper chambers and the peptides were added to the lower chambers in serum free medium. Migrated cells were collected from the lower chambers and counted using a flow cytometer. Data are presented as a percentage of migrated cells.
To address this issue, the cells were incubated with the peptides for 3 hrs, washed and then allowed to migrate towards SDF-1.

SMILES: N=C(N)NCCC[C@@H]1NC(=O)CNC(=O)[C@H](CCCNC(=N)N)NC(=O)[C@H](CCCCN)NC(=O)[C@H](CCCCN)NC(=O)[C@H](CCCNC(=N)N)NC(=O)[C@H](CCCNC(=N)N)NC(=O)[C@H](CS)NC(=O)[C@H](CS)NC(=O)[C@H](CCCCN)NC1=O [cyclic TL-1, 1,10-cyclo[RGRKCCRRKK]] (cyclo(CCRRKKRGRK))
- SDF-1 plasma levels [1]: did not induce increase
- HGF secretion into supernatants [2]: induced elevation
- levels of SDF-1 in supernatants ([2]; compared with untreated cells): increased the levels of SDF-1 secretion by MS-5 and MBA-15 cells but much less as compared with TL-1 and AK-1
- levels of SDF-1 in supernatants [3]: increased the levels of SDF-1 secretion by MS-5 and MBA-15 cells but much less as compared with TL-1 and AK-1
- levels of SDF-1 in supernatants [4]: ineffective
- SDF-1-induced migration ([5]; 1 μM): ineffective
- inhibition of SDF-1-induced migration ([5]; 10 μM): 2 fold
